Measurements from patent US20020165133A1 (priority 2001, published 2002).
Entries after “also recorded” stand apart in the source; their conditions may differ.

Test system: C57BL/6 mice
Test: Test of hair regrowth effects on the shaved backs of C57BL/6 mice
Assay type: in vivo
Settings: C57BL/6 mice (female), applied over hair removed area once a day for 30 days, 100 μl (0.05% w/v)
Source text: C57BL/6 mice (female), 42˜49 days old, were used in this test.
The mice were removed of hair on their backs using an electric shaver, and weighed. The mice were divided into several groups with weights equally distributed. […] The degree of hair growth were judged by naked eye and the back sides of the mice were photographed.

[Leu^4]cyclosporin A [M21] was tested. Which “hair growth effect (degree of hair growth judged by naked eye)” value did it give?
The value was “no significant effect; also recorded: no hair growth effect”.
